# Test system: HIV-1 single-round infectious reporter virus
# Assay: Single-round infectious HIV-1 luciferase reporter virus infection of HeLa CD4 cells
# Assay type: cell-based
# Settings: Human immunodeficiency virus 1, HeLa, 72 h, read-out: EC50 Group from Table 1
# Protocol: • Virus production—Human embryonic Kidney cell line, 293, was propagated in Dulbecco's Modified Eagle Medium (Invitrogen, Carlsbad, Calif.) containing 10% fetal Bovine serum (FBS, Sigma, St. Louis, Mo.). • Virus infection—Human epithelial cell line, HeLa, expressing the HIV-1 receptor CD4 was propagated in Dulbecco's Modified Eagle Medium (Invitrogen, Carlsbad, Calif.) containing 10% fetal Bovine serum (FBS, Sigma, St. Louis, Mo.) and supplemented with 0.2 mg/mL Geneticin (Invitrogen, Carlsbad, Calif.). Virus-Single-round infectious reporter virus was produced by co-transfecting human embryonic Kidney 293 cells with an HIV-1 envelope DNA expression vector and a proviral cDNA containing an envelope deletion mutation and the luciferase reporter gene inserted in place of HIV-1 nef sequences (Chen et al, Ref 41). Transfections were performed using lipofectAMINE PLUS reagent as described by the manufacturer (Invitrogen, Carlsbad, Calif.). Experiment • 1. HeLa CD4 cells were plated in 96 well plates at a cell density of 1×10^4 cells per well in 100 μl Dulbecco's Modified Eagle Medium containing 10% fetal Bovine serum and incubated overnight. • 2. Compound was added in a 2 μl dimethylsulfoxide solution, so that the final assay concentration would be ≦10 μM. • 3. 100 μl of single-round infectious reporter virus in Dulbecco's Modified Eagle Medium was then added to the plated cells and compound at an approximate multiplicity of infection (MOI) of 0.01, resulting in a final volume of 200 μl per well. • 4. Virally-infected cells were incubated at 37 degrees Celsius, in a CO2 incubator, and harvested 72 h after infection. • 5. Viral infection was monitored by measuring luciferase expression from viral DNA in the infected cells using a luciferase reporter gene assay kit, as described by the manufacturer (Roche Molecular Biochemicals, Indianapolis, Ind.). Infected cell supernatants were removed and 50 μl of lysis buffer was added per well. After 15 minutes, 50 μl of freshly-reconstituted luciferase assay reagent was added per well. Luciferase activity was then quantified by measuring luminescence using a Wallac microbeta scintillation counter. • 6. The percent inhibition for each compound was calculated by quantifying the level of luciferase expression in cells infected in the presence of each compound as a percentage of that observed for cells infected in the absence of compound and subtracting such a determined value from 100. • 7. An EC50 provides a method for comparing the antiviral potency of the compounds of this invention. The effective concentration for fifty percent inhibition (EC50) was calculated with the Microsoft Excel Xlfit curve fitting software. For each compound, curves were generated from percent inhibition calculated at 10 different concentrations by using a four paramenter logistic model (model 205). Table 1 is the key for the data in Table 2. Results
row,SMILES,EC50
1,COc1ccc(-n2cncn2)c2[nH]cc(C(=O)C(=O)N3CCN(c4nccc5ccccc45)CC3)c12 [Example 31],< 1000 nM
2,COc1cnc(C(=O)O)c2[nH]cc(C(=O)C(=O)N3CCN(c4ncnc5ccccc45)CC3)c12 [Example 50],< 1000 nM
3,COc1cnc(-n2ccnn2)c2[nH]cc(C(=O)C(=O)N3CCN(c4ncnc5ccccc45)CC3)c12 [Example 52],< 1000 nM
4,COc1cnc(-n2cncn2)c2[nH]cc(C(=O)C(=O)N3CCN(c4ncnc5ccccc45)CC3)c12 [Example 47],< 1000 nM
5,COc1cnc(Br)c2[nH]cc(C(=O)C(=O)N3CCN(c4ncnc5ccccc45)CC3)c12 [Example 53],< 1000 nM
6,O=C(C(=O)N1CCN(c2nc(Cl)cc3ccccc23)CC1)c1c[nH]c2c(-n3ccnn3)ncc(F)c12 [Example 68],< 1000 nM
7,O=C(C(=O)N1CCN(c2ncnc3ccccc23)CC1)c1c[nH]c2c(-c3cc[nH]n3)ncc(F)c12 [Example 94],< 1000 nM
8,COc1cnc(Cl)c2[nH]cc(C(=O)C(=O)N3CCN(c4ncnc5ccccc45)CC3)c12 [Example 75],< 1000 nM
9,O=C(C(=O)N1CCN(c2ccc3ccccc3n2)CC1)c1c[nH]c2c(-n3ccnn3)ncc(F)c12 [Example 91],< 1000 nM
10,O=C(C(=O)N1CCN(c2nncc3ccccc23)CC1)c1c[nH]c2c(-c3cnccn3)ncc(F)c12 [Example 78],< 1000 nM
11,COc1cnc(-n2ccnn2)c2[nH]cc(C(=O)C(=O)N3CCN(c4nc(C)nc5ccccc45)CC3)c12 [Example 61],< 1000 nM
12,COc1ncc(-c2ncc(F)c3c(C(=O)C(=O)N4CCN(c5ncnc6ccccc56)CC4)c[nH]c23)cn1 [Example 82],< 1000 nM
13,COc1cnc(C(N)=O)c2[nH]cc(C(=O)C(=O)N3CCN(c4nncc5ccccc45)CC3)c12 [Example 64],< 1000 nM
14,CNC(=O)Cc1n[nH]c(-c2ccc(OC)c3c(C(=O)C(=O)N4CCN(c5nccc6ccccc56)CC4)c[nH]c23)n1 [Example 34],< 1000 nM
15,COc1ccc(-c2nc(CC(N)=O)n[nH]2)c2[nH]cc(C(=O)C(=O)N3CCN(c4nccc5ccccc45)CC3)c12 [Example 35],< 1000 nM
16,O=C(C(=O)N1CCN(c2ncnc3ccccc23)CC1)c1c[nH]c2c(-c3cccnc3)ncc(F)c12 [Example 83],< 1000 nM
17,COc1ccc(-c2ncon2)c2[nH]cc(C(=O)C(=O)N3CCN(c4nccc5ccccc45)CC3)c12 [Example 17],< 1000 nM
18,COC(=O)Cn1nnc(-c2ccc(OC)c3c(C(=O)C(=O)N4CCN(c5nccc6ccccc56)CC4)c[nH]c23)n1 [Example 26],< 1000 nM
19,COc1ccc(/C(N)=N\O)c2[nH]cc(C(=O)C(=O)N3CCN(c4nccc5ccccc45)CC3)c12 [Example 14],< 1000 nM
20,COc1cnc(-n2cnc(C)n2)c2[nH]cc(C(=O)C(=O)N3CCN(c4nc(C)nc5ccccc45)CC3)c12 [Example 60],< 1000 nM

row,SMILES,EC50
1,COc1cnc(C#N)c2[nH]cc(C(=O)C(=O)N3CCN(c4ncnc5ccccc45)CC3)c12 [Example 45],< 1000 nM
2,COc1ccc(-c2nn[nH]n2)c2[nH]cc(C(=O)C(=O)N3CCN(c4nccc5ccccc45)CC3)c12 [Example 15],< 1000 nM
3,COc1cc(N2CCN(C(=O)C(=O)c3c[nH]c4c(-n5cncn5)ncc(OC)c34)CC2)c2cc(C)ccc2n1 [Example 86],< 1000 nM
4,COc1ncc(OC)c2c(C(=O)C(=O)N3CCN(c4ncnc5ccccc45)CC3)c[nH]c12 [Example 9],< 1000 nM
5,COc1cnc(C(N)=O)c2[nH]cc(C(=O)C(=O)N3CCN(c4ncnc5ccccc45)CC3)c12 [Example 49],< 1000 nM
6,COc1cnc(-n2nccn2)c2[nH]cc(C(=O)C(=O)N3CCN(c4ncnc5ccccc45)CC3)c12 [Example 51],< 1000 nM
7,COc1ccc(C#N)c2[nH]cc(C(=O)C(=O)N3CCN(c4ncnc5ccccc45)CC3)c12 [Example 44],< 1000 nM
8,O=C(C(=O)N1CCN(c2ncnc3ccccc23)CC1)c1c[nH]c2c(-c3ccncc3)ncc(F)c12 [Example 79],1000 to 5000 nM
9,COc1cnc(-n2ccnn2)c2[nH]cc(C(=O)C(=O)N3CCN(c4nncc5ccccc45)CC3)c12 [Example 54],< 1000 nM
10,COc1ccc(-c2nnn(CC(=O)O)n2)c2[nH]cc(C(=O)C(=O)N3CCN(c4nccc5ccccc45)CC3)c12 [Example 27],< 1000 nM
11,COC(=O)Cc1n[nH]c(-c2ccc(OC)c3c(C(=O)C(=O)N4CCN(c5nccc6ccccc56)CC4)c[nH]c23)n1 [Example 32],< 1000 nM
12,O=C(C(=O)N1CCN(c2ncnc3ccccc23)CC1)c1c[nH]c2c(Br)ncc(F)c12 [Example 73],< 1000 nM
13,COc1ccc(-c2nc(-c3cccnc3)n[nH]2)c2[nH]cc(C(=O)C(=O)N3CCN(c4nccc5ccccc45)CC3)c12 [Example 22],< 1000 nM
14,O=C(C(=O)N1CCN(c2ncnc3ccccc23)CC1)c1c[nH]c2c(-c3ncccn3)ncc(F)c12 [Example 84],< 1000 nM
15,O=C(C(=O)N1CCN(c2ncnc3ccccc23)CC1)c1c[nH]c2c(-n3ccnn3)ncc(F)c12 [Example 48],< 1000 nM
16,COc1cnc(Br)c2[nH]cc(C(=O)C(=O)N3CCN(c4nncc5ccccc45)CC3)c12 [Example 62],< 1000 nM
17,COc1ccc(-c2cnccn2)c2[nH]cc(C(=O)C(=O)N3CCN(c4nccc5ccccc45)CC3)c12 [Example 30],< 1000 nM
18,COc1cnc(-n2cncn2)c2[nH]cc(C(=O)C(=O)N3CCN(c4ccnc5ccccc45)CC3)c12 [Example 85],< 1000 nM
19,COc1cnc(-n2cnc(C#N)n2)c2[nH]cc(C(=O)C(=O)N3CCN(c4ncnc5ccccc45)CC3)c12 [Example 69],< 1000 nM
20,COc1ccc(C(=N)NNC(=O)c2cccnc2)c2[nH]cc(C(=O)C(=O)N3CCN(c4nccc5ccccc45)CC3)c12 [Example 23],< 1000 nM

row,SMILES,EC50
1,O=C(C(=O)N1CCN(c2ncnc3ccccc23)CC1)c1c[nH]c2c(-c3ncon3)ccc(F)c12 [Example 3],< 1000 nM
2,COc1ccc(-c2nc(C)n[nH]2)c2[nH]cc(C(=O)C(=O)N3CCN(c4nccc5ccccc45)CC3)c12 [Example 11],< 1000 nM
3,COc1ccc(-c2nc3ccccc3[nH]2)c2[nH]cc(C(=O)C(=O)N3CCN(c4nccc5ccccc45)CC3)c12 [Example 19],< 1000 nM
4,COc1cnc(-n2cnc(C(N)=O)n2)c2[nH]cc(C(=O)C(=O)N3CCN(c4ncnc5ccccc45)CC3)c12 [Example 70],< 1000 nM
5,O=C(C(=O)N1CCN(c2nncc3ccccc23)CC1)c1c[nH]c2c(Br)ncc(F)c12 [Example 92],< 1000 nM
6,N#Cc1ncc(F)c2c(C(=O)C(=O)N3CCN(c4nccc5ccccc45)CC3)c[nH]c12 [Example 87],< 1000 nM
7,COc1cnc(-n2cnc(C)n2)c2[nH]cc(C(=O)C(=O)N3CCN(c4ccnc5ccccc45)CC3)c12 [Example 39],< 1000 nM
8,O=C(C(=O)N1CCN(c2nncc3ccccc23)CC1)c1c[nH]c2c(-c3ccccn3)ncc(F)c12 [Example 77],< 1000 nM
9,COc1cnc(-n2cncn2)c2[nH]cc(C(=O)C(=O)N3CCN(c4nccc5ccccc45)CC3)c12 [Example 36],< 1000 nM
10,COc1cnc(-c2cncnc2)c2[nH]cc(C(=O)C(=O)N3CCN(c4ncnc5ccccc45)CC3)c12 [Example 80],< 1000 nM
11,COc1cnc(-n2cnc(C)n2)c2[nH]cc(C(=O)C(=O)N3CCN(c4ncnc5ccccc45)CC3)c12 [Example 46],< 1000 nM
12,COc1ccc(-c2nnn(C)n2)c2[nH]cc(C(=O)C(=O)N3CCN(c4nccc5ccccc45)CC3)c12 [Example 16],< 1000 nM
13,COc1cnc(-n2cnc(C)n2)c2[nH]cc(C(=O)C(=O)N3CCN(c4nncc5ccccc45)CC3)c12 [Example 55],< 1000 nM
14,N=C(NNC(=O)c1ccccc1)c1ncc(F)c2c(C(=O)C(=O)N3CCN(c4nccc5ccccc45)CC3)c[nH]c12 [Example 89],< 1000 nM
15,O=C(C(=O)N1CCN(c2ncnc3ccccc23)CC1)c1c[nH]c2c(-c3cn[nH]c3)ncc(F)c12 [Example 95],< 1000 nM
16,O=C(C(=O)N1CCN(c2nccc3ccccc23)CC1)c1c[nH]c2c(-c3ncon3)ccc(F)c12 [Example 1],< 1000 nM
17,O=C(C(=O)N1CCN(c2nccc3ccccc23)CC1)c1c[nH]c2c(-c3ccccn3)ncc(F)c12 [Example 72],< 1000 nM
18,COc1cnc(-n2cnc(C)n2)c2[nH]cc(C(=O)C(=O)N3CCN(c4nnc(O)c5ccccc45)CC3)c12 [Example 58],< 1000 nM
19,COc1ccc(-c2ncn[nH]2)c2[nH]cc(C(=O)C(=O)N3CCN(c4nccc5ccccc45)CC3)c12 [Example 21],< 1000 nM

# Source: patent publication US8039486B2, “Indole, azaindole and related heterocyclic N-substituted piperazine derivatives” (priority 2003, dated 2011)
